Measured values from ChEMBL document CHEMBL3137667, “[Drug-induced liver injury; fourteenth updated edition of the bibliographic database of liver injuries and related drugs]” (Gastroenterol Clin Biol, 2004).

Assays:
[1] = human
[2] = human; remark: listed apart in the source
[3] = human, serum
[4] = Proposed mechanism(s) of liver damage. [column 'MEC' in source]; conditions: human
[5] = human; remark: listed apart in the source
[6] = Highest frequency of acute liver toxicity observed during clinical trials, expressed as a percentage. [column '% AIGUE' in source]; conditions: human
[7] = human; remark: listed apart in the source
[8] = Times to onset, minimal and maximal, observed in the indexed observations. [column 'DELAI' in source]; conditions: human
[9] = human, serum, 4383 h
[10] = Highest frequency of moderate liver toxicity observed during clinical trials, expressed as a percentage. [column '% BIOL' in source]; conditions: human
[11] = human; remark: listed apart in the source
[12] = human; remark: listed apart in the source
[13] = human, serum; remark: listed apart in the source
[14] = human; remark: listed apart in the source
[15] = human; remark: listed apart in the source
[16] = human; remark: listed apart in the source
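For Hepatotoxicity (association with vascular disease) in this document: count of indexed literature references reporting vascular liver injury in humans, e.g. peliosis hepatitis, hepatic veno-occlusive disease or Budd-Chiari syndrome.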
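For Hepatotoxicity (benign tumour) in this document: value is a count of indexed literature references citing a benign tumour confirmed by histopathology.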
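For Hepatotoxicity (choleostasis) in this document: human cholestatic liver injury, shown by histopathology or by peak ALT or AST elevation over alkaline phosphatase ratio below 2, value counts indexed literature reports.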
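For Hepatotoxicity (chronic liver disease) in this document: chronic liver injury confirmed by histopathology or persistently raised serum aminotransferase activity beyond 6 months, value given as the count of indexed literature references.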
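For Hepatotoxicity (cirrhosis) in this document: value is a count of indexed literature references reporting cirrhosis confirmed by histopathology.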
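For Hepatotoxicity (cytolytic) in this document: human cytolytic liver injury, shown by histopathology or by a ratio above 5 of peak ALT or AST elevation to alkaline phosphatase elevation, value counts indexed references.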
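For Hepatotoxicity (granulomatous hepatitis) in this document: value is a count of indexed literature references reporting granulomatous liver disease confirmed by histopathology.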
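For Hepatotoxicity (malignant tumour) in this document: malignant tumour confirmed by histopathology, value gives the count of indexed literature references reporting it.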
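For Hepatotoxicity (severe hepatitis) in this document: human clinical data: severe hepatitis, meaning potentially life-threatening liver failure or clinically observed cases, the value counts how many indexed literature references report it.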
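For Hepatotoxicity (steatosis) in this document: steatosis confirmed by histopathology, value is the count of indexed references.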

Nc1nc(=O)[nH]cc1F [FLUCYTOSINE]
Hepatotoxicity (severe hepatitis) [1]: 2 | Hepatotoxicity (granulomatous hepatitis) [2]: 0 | Hepatotoxicity (acute) [3]: 5 | Hepatotoxicity (mechanism) [4]: Dose-dependant | Hepatotoxicity (choleostasis) [5]: 3 | Hepatotoxicity (acute) [6]: 2% | Hepatotoxicity (cytolytic) [7]: 3 | Hepatotoxicity (time to onset) [8]: 2 weeks - 2 months | Hepatotoxicity (chronic liver disease) [9]: 0 | Hepatotoxicity (moderate) [10]: 55% | Hepatotoxicity (benign tumour) [11]: 0 | Hepatotoxicity (steatosis) [12]: 0 | Hepatotoxicity (moderate) [13]: 22 | Hepatotoxicity (association with vascular disease) [14]: 0 | Hepatotoxicity (malignant tumour) [15]: 0 | Hepatotoxicity (cirrhosis) [16]: 0

CN1CCN(CCCN2c3ccccc3Sc3ccccc32)CC1 [PERAZINE]
Hepatotoxicity (severe hepatitis) [1]: 0 | Hepatotoxicity (granulomatous hepatitis) [2]: 0 | Hepatotoxicity (acute) [3]: 3 | Hepatotoxicity (mechanism) [4]: Dose-dependant | Hepatotoxicity (choleostasis) [5]: 1 | Hepatotoxicity (acute) [6]: 0.3% | Hepatotoxicity (cytolytic) [7]: 2 | Hepatotoxicity (time to onset) [8]: 1.5 months - 1 year | Hepatotoxicity (chronic liver disease) [9]: 0 | Hepatotoxicity (moderate) [10]: 43% | Hepatotoxicity (benign tumour) [11]: 0 | Hepatotoxicity (steatosis) [12]: 0 | Hepatotoxicity (moderate) [13]: 5 | Hepatotoxicity (association with vascular disease) [14]: 0 | Hepatotoxicity (malignant tumour) [15]: 0 | Hepatotoxicity (cirrhosis) [16]: 0

c1ccc2c(CCC3CCNCC3)c[nH]c2c1 [INDALPINE]
Hepatotoxicity (severe hepatitis) [1]: 0 | Hepatotoxicity (granulomatous hepatitis) [2]: 0 | Hepatotoxicity (acute) [3]: 1 | Hepatotoxicity (mechanism) [4]: Allergic | Hepatotoxicity (choleostasis) [5]: 1 | Hepatotoxicity (acute) [6]: 0% | Hepatotoxicity (cytolytic) [7]: 1 | Hepatotoxicity (time to onset) [8]: 25 days - 4 months | Hepatotoxicity (chronic liver disease) [9]: 0 | Hepatotoxicity (moderate) [10]: 0% | Hepatotoxicity (benign tumour) [11]: 0 | Hepatotoxicity (steatosis) [12]: 1 | Hepatotoxicity (moderate) [13]: 1 | Hepatotoxicity (association with vascular disease) [14]: 0 | Hepatotoxicity (malignant tumour) [15]: 0 | Hepatotoxicity (cirrhosis) [16]: 0

CC1=C(/C=C/C(C)=C/C=C/C(C)=C\C(=O)O)C(C)(C)CCC1 [ISOTRETINOIN]
Hepatotoxicity (severe hepatitis) [1]: 0 | Hepatotoxicity (granulomatous hepatitis) [2]: 0 | Hepatotoxicity (acute) [3]: 3 | Hepatotoxicity (mechanism) [4]: Dose-dependant | Hepatotoxicity (choleostasis) [5]: 0 | Hepatotoxicity (acute) [6]: 8.8% | Hepatotoxicity (cytolytic) [7]: 1 | Hepatotoxicity (time to onset) [8]: 4 months | Hepatotoxicity (chronic liver disease) [9]: 0 | Hepatotoxicity (moderate) [10]: 44.4% | Hepatotoxicity (benign tumour) [11]: 0 | Hepatotoxicity (steatosis) [12]: 1 | Hepatotoxicity (moderate) [13]: 35 | Hepatotoxicity (association with vascular disease) [14]: 0 | Hepatotoxicity (malignant tumour) [15]: 0 | Hepatotoxicity (cirrhosis) [16]: 0

CN[C@@H]1[C@H](O[C@H]2[C@H](O[C@H]3[C@H](O)[C@@H](O)[C@H](NC(=N)N)[C@@H](O)[C@@H]3NC(=N)N)O[C@@H](C)[C@]2(O)CO)O[C@@H](CO)[C@H](O)[C@H]1O [DIHYDROSTREPTOMYCIN]
Hepatotoxicity (severe hepatitis) [1]: 0 | Hepatotoxicity (granulomatous hepatitis) [2]: 0 | Hepatotoxicity (acute) [3]: 1 | Hepatotoxicity (mechanism) [4]: Allergic | Hepatotoxicity (choleostasis) [5]: 0 | Hepatotoxicity (acute) [6]: 0% | Hepatotoxicity (cytolytic) [7]: 1 | Hepatotoxicity (time to onset) [8]: < 1 days | Hepatotoxicity (chronic liver disease) [9]: 0 | Hepatotoxicity (moderate) [10]: 0% | Hepatotoxicity (benign tumour) [11]: 0 | Hepatotoxicity (steatosis) [12]: 0 | Hepatotoxicity (moderate) [13]: 0 | Hepatotoxicity (association with vascular disease) [14]: 0 | Hepatotoxicity (malignant tumour) [15]: 0 | Hepatotoxicity (cirrhosis) [16]: 0

CN(C)/N=N/c1[nH]cnc1C(N)=O [DACARBAZINE]
Hepatotoxicity (severe hepatitis) [1]: 6 | Hepatotoxicity (granulomatous hepatitis) [2]: 0 | Hepatotoxicity (acute) [3]: 5 | Hepatotoxicity (mechanism) [4]: Allergic, Toxic | Hepatotoxicity (choleostasis) [5]: 2 | Hepatotoxicity (acute) [6]: 0% | Hepatotoxicity (cytolytic) [7]: 4 | Hepatotoxicity (time to onset) [8]: 1 cure - 4 cures | Hepatotoxicity (chronic liver disease) [9]: 0 | Hepatotoxicity (moderate) [10]: 50% | Hepatotoxicity (benign tumour) [11]: 0 | Hepatotoxicity (steatosis) [12]: 0 | Hepatotoxicity (moderate) [13]: 12 | Hepatotoxicity (association with vascular disease) [14]: 24 | Hepatotoxicity (malignant tumour) [15]: 0 | Hepatotoxicity (cirrhosis) [16]: 0

Cc1ccc(O)c([C@H](CCN(C(C)C)C(C)C)c2ccccc2)c1 [TOLTERODINE]
Hepatotoxicity (severe hepatitis) [1]: 0 | Hepatotoxicity (granulomatous hepatitis) [2]: 0 | Hepatotoxicity (acute) [3]: 1 | Hepatotoxicity (mechanism) [4]: Allergic | Hepatotoxicity (choleostasis) [5]: 1 | Hepatotoxicity (acute) [6]: 0% | Hepatotoxicity (cytolytic) [7]: 1 | Hepatotoxicity (time to onset) [8]: 18 days | Hepatotoxicity (chronic liver disease) [9]: 0 | Hepatotoxicity (moderate) [10]: 0% | Hepatotoxicity (benign tumour) [11]: 0 | Hepatotoxicity (steatosis) [12]: 0 | Hepatotoxicity (moderate) [13]: 0 | Hepatotoxicity (association with vascular disease) [14]: 0 | Hepatotoxicity (malignant tumour) [15]: 0 | Hepatotoxicity (cirrhosis) [16]: 0

CNC(=O)c1c(I)c(C(=O)NCC(=O)Nc2c(I)c(C(=O)O)c(I)c(C(=O)NCCO)c2I)c(I)c(N(C)C(C)=O)c1I [IOXAGLIC ACID]
Hepatotoxicity (severe hepatitis) [1]: 0 | Hepatotoxicity (granulomatous hepatitis) [2]: 0 | Hepatotoxicity (acute) [3]: 1 | Hepatotoxicity (mechanism) [4]: Allergic | Hepatotoxicity (choleostasis) [5]: 0 | Hepatotoxicity (acute) [6]: 0% | Hepatotoxicity (cytolytic) [7]: 1 | Hepatotoxicity (time to onset) [8]: 1 days | Hepatotoxicity (chronic liver disease) [9]: 0 | Hepatotoxicity (moderate) [10]: 0% | Hepatotoxicity (benign tumour) [11]: 0 | Hepatotoxicity (steatosis) [12]: 0 | Hepatotoxicity (moderate) [13]: 0 | Hepatotoxicity (association with vascular disease) [14]: 0 | Hepatotoxicity (malignant tumour) [15]: 0 | Hepatotoxicity (cirrhosis) [16]: 0

Cc1cc2c(s1)Nc1ccccc1N=C2N1CCN(C)CC1 [OLANZAPINE]
Hepatotoxicity (severe hepatitis) [1]: 0 | Hepatotoxicity (granulomatous hepatitis) [2]: 0 | Hepatotoxicity (acute) [3]: 2 | Hepatotoxicity (mechanism) [4]: Allergic, Dose-dependant | Hepatotoxicity (choleostasis) [5]: 1 | Hepatotoxicity (acute) [6]: 0% | Hepatotoxicity (cytolytic) [7]: 2 | Hepatotoxicity (time to onset) [8]: 13 days - 15 months | Hepatotoxicity (chronic liver disease) [9]: 0 | Hepatotoxicity (moderate) [10]: 30% | Hepatotoxicity (benign tumour) [11]: 0 | Hepatotoxicity (steatosis) [12]: 1 | Hepatotoxicity (moderate) [13]: 13 | Hepatotoxicity (association with vascular disease) [14]: 0 | Hepatotoxicity (malignant tumour) [15]: 0 | Hepatotoxicity (cirrhosis) [16]: 0

O=C1CN=C(c2ccccc2Cl)c2cc([N+](=O)[O-])ccc2N1 [CLONAZEPAM]
Hepatotoxicity (severe hepatitis) ([1]; Liver): 1 | Hepatotoxicity (granulomatous hepatitis) [2]: 0 | Hepatotoxicity (acute) [3]: 2 | Hepatotoxicity (mechanism) [4]: Toxic Metabolite | Hepatotoxicity (choleostasis) [5]: 0 | Hepatotoxicity (acute) ([6]; Liver): 0% | Hepatotoxicity (cytolytic) [7]: 2 | Hepatotoxicity (time to onset) [8]: 3 weeks - 4 months | Hepatotoxicity (chronic liver disease) [9]: 0 | Hepatotoxicity (moderate) ([10]; Liver): 0% | Hepatotoxicity (benign tumour) [11]: 0 | Hepatotoxicity (steatosis) [12]: 0 | Hepatotoxicity (moderate) [13]: 0 | Hepatotoxicity (association with vascular disease) [14]: 0 | Hepatotoxicity (malignant tumour) [15]: 0 | Hepatotoxicity (cirrhosis) [16]: 0
